Experimental data from patent US12077503B2, “Substituted cyclic amides and their use as herbicides” (FMC CORPORATION, priority 2015, dated 2024).

How the values were obtained:
Assay in all cases: Test C preemergence
Type in all cases: in vivo
[1] = system: crabgrass, large (large crabgrass, Digitaria sanguinalis); conditions: for Plant response rating, Crabgrass, Large: scale 0 to 100, 0 no effect, 100 complete control
In short: (§1)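 Scores of 0 to 100 reflect visual comparison with control plants, where 0 means no effect and 100 complete control, made 13 to 15 d after treatment. Application was preemergence to seeds in loam-sand soil or postemergence to plants 2 to 18 cm tall in peat-based mix, using a surfactant-containing solvent formulation.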

[2] = system: wheat (winter wheat, Triticum aestivum); conditions: for Plant response rating, Wheat: scale 0 to 100, 0 no effect, 100 complete control
In short: as §1

[3] = system: ragweed (common ragweed, Ambrosia elatior); conditions: for Plant response rating, Ragweed: scale 0 to 100, 0 no effect, 100 complete control
In short: as §1

[4] = system: blackgrass (Alopecurus myosuroides); conditions: for Plant response rating, Blackgrass: scale 0 to 100, 0 no effect, 100 complete control
In short: as §1

[5] = system: morningglory (Ipomoea coccinea); conditions: for Plant response rating, Morningglory: scale 0 to 100, 0 no effect, 100 complete control
In short: as §1

[6] = system: Galium (catchweed bedstraw, Galium aparine); conditions: for Plant response rating, Galium: scale 0 to 100, 0 no effect, 100 complete control
In short: as §1

[7] = system: ryegrass, Italian (Italian ryegrass, Lolium multiflorum); conditions: for Plant response rating, Ryegrass, Italian: scale 0 to 100, 0 no effect, 100 complete control
In short: as §1

[8] = system: barnyardgrass (Echinochloa crus-galli); conditions: for Plant response rating, Barnyardgrass: scale 0 to 100, 0 no effect, 100 complete control
In short: as §1

[9] = system: velvetleaf (Abutilon theophrasti); conditions: for Plant response rating, Velvetleaf: scale 0 to 100, 0 no effect, 100 complete control
In short: as §1

[10] = system: nutsedge, yellow (yellow nutsedge, Cyperus esculentus); conditions: for Plant response rating, Nutsedge, Yellow: scale 0 to 100, 0 no effect, 100 complete control
In short: as §1

[11] = system: johnsongrass (Sorghum halepense); conditions: for Plant response rating, Johnsongrass: scale 0 to 100, 0 no effect, 100 complete control
In short: as §1

[12] = system: oilseed rape (Brassica napus); conditions: for Plant response rating, Oilseed Rape: scale 0 to 100, 0 no effect, 100 complete control
In short: as §1

[13] = system: foxtail, giant (giant foxtail, Setaria faberii); conditions: for Plant response rating, Foxtail, Giant: scale 0 to 100, 0 no effect, 100 complete control
In short: as §1

[14] = system: pigweed (Amaranthus retroflexus); conditions: for Plant response rating, Pigweed: scale 0 to 100, 0 no effect, 100 complete control
In short: as §1

soybean (Glycine max) = conditions: for Plant response rating, Soybean: scale 0 to 100, 0 no effect, 100 complete control
In short: as §1

[15] = system: lambsquarters (Chenopodium album); conditions: for Plant response rating, Lambsquarters: scale 0 to 100, 0 no effect, 100 complete control
In short: as §1

corn (Zea mays) = conditions: for Plant response rating, Corn: scale 0 to 100, 0 no effect, 100 complete control
In short: as §1

[16] = system: waterhemp (common waterhemp, Amaranthus rudis); conditions: for Plant response rating, Waterhemp: scale 0 to 100, 0 no effect, 100 complete control
In short: as §1

[17] = 31 g ai/ha, 0 is no effect, 100 is complete control

CN1CC(c2ccc(F)c(F)c2)C(C(=O)Nc2ccccc2S(C)(=O)=O)C1=O (stereo not drawn) [Compound 640]
Plant response rating (scale of 0 to 100), Crabgrass, Large [1, 17]: 95 | Plant response rating, Crabgrass, Large ([1]; 62 g ai/ha): 100 | Plant response rating, Crabgrass, Large ([1]; 125 g ai/ha): 98 | Plant response rating, Crabgrass, Large ([1]; 250 g ai/ha): 100 | Plant response rating (scale of 0 to 100), Wheat [2, 17]: 0 | Plant response rating, Wheat ([2]; 62 g ai/ha): 20 | Plant response rating, Wheat ([2]; 125 g ai/ha): 45 | Plant response rating, Wheat ([2]; 250 g ai/ha): 60 | Plant response rating (scale of 0 to 100), Ragweed [3, 17]: 0 | Plant response rating, Ragweed ([3]; 62 g ai/ha): 40 | Plant response rating, Ragweed ([3]; 125 g ai/ha): 70 | Plant response rating, Ragweed ([3]; 250 g ai/ha): 85 | Plant response rating (scale of 0 to 100), Blackgrass [4, 17]: 0 | Plant response rating, Blackgrass ([4]; 62 g ai/ha): 0 | Plant response rating, Blackgrass ([4]; 125 g ai/ha): 20 | Plant response rating, Blackgrass ([4]; 250 g ai/ha): 50 | Plant response rating (scale of 0 to 100), Morningglory [5, 17]: 0 | Plant response rating, Morningglory ([5]; 62 g ai/ha): 0 | Plant response rating, Morningglory ([5]; 125 g ai/ha): 0 | Plant response rating, Morningglory ([5]; 250 g ai/ha): 0 | Plant response rating (scale of 0 to 100), Galium [6, 17]: 98 | Plant response rating, Galium ([6]; 62 g ai/ha): 80 | Plant response rating, Galium ([6]; 125 g ai/ha): 85 | Plant response rating, Galium ([6]; 250 g ai/ha): 90 | Plant response rating (scale of 0 to 100), Ryegrass, Italian [7, 17]: 0 | Plant response rating, Ryegrass, Italian ([7]; 62 g ai/ha): 5 | Plant response rating, Ryegrass, Italian ([7]; 125 g ai/ha): 5 | Plant response rating, Ryegrass, Italian ([7]; 250 g ai/ha): 40 | Plant response rating (scale of 0 to 100), Barnyardgrass [8, 17]: 80 | Plant response rating, Barnyardgrass ([8]; 62 g ai/ha): 90 | Plant response rating, Barnyardgrass ([8]; 125 g ai/ha): 90 | Plant response rating, Barnyardgrass ([8]; 250 g ai/ha): 95 | Plant response rating (scale of 0 to 100), Velvetleaf [9, 17]: 0 | Plant response rating, Velvetleaf ([9]; 62 g ai/ha): 0 | Plant response rating, Velvetleaf ([9]; 125 g ai/ha): 10 | Plant response rating, Velvetleaf ([9]; 250 g ai/ha): 40 | Plant response rating (scale of 0 to 100), Nutsedge, Yellow [10, 17]: 0 | Plant response rating, Nutsedge, Yellow ([10]; 62 g ai/ha): 0 | Plant response rating, Nutsedge, Yellow ([10]; 125 g ai/ha): 0 | Plant response rating, Nutsedge, Yellow ([10]; 250 g ai/ha): 0 | Plant response rating (scale of 0 to 100), Johnsongrass [11, 17]: 0 | Plant response rating, Johnsongrass ([11]; 62 g ai/ha): 0 | Plant response rating, Johnsongrass ([11]; 125 g ai/ha): 0 | Plant response rating, Johnsongrass ([11]; 250 g ai/ha): 40 | Plant response rating (scale of 0 to 100), Oilseed Rape [12, 17]: 0 | Plant response rating, Oilseed Rape ([12]; 62 g ai/ha): 0 | Plant response rating, Oilseed Rape ([12]; 125 g ai/ha): 5 | Plant response rating, Oilseed Rape ([12]; 250 g ai/ha): 80 | Plant response rating (scale of 0 to 100), Foxtail, Giant [13, 17]: 85 | Plant response rating, Foxtail, Giant ([13]; 62 g ai/ha): 95 | Plant response rating, Foxtail, Giant ([13]; 125 g ai/ha): 95 | Plant response rating, Foxtail, Giant ([13]; 250 g ai/ha): 95 | Plant response rating (scale of 0 to 100), Pigweed [14, 17]: 40 | Plant response rating, Pigweed ([14]; 62 g ai/ha): 50 | Plant response rating, Pigweed ([14]; 125 g ai/ha): 70 | Plant response rating, Pigweed ([14]; 250 g ai/ha): 80 | Plant response rating (scale of 0 to 100), Soybean (soybean (Glycine max); [17]): 0 | Plant response rating, Soybean (soybean (Glycine max); 62 g ai/ha): 0 | Plant response rating, Soybean (soybean (Glycine max); 125 g ai/ha): 0 | Plant response rating, Soybean (soybean (Glycine max); 250 g ai/ha): 0 | Plant response rating (scale of 0 to 100), Lambsquarters [15, 17]: 25 | Plant response rating, Lambsquarters ([15]; 62 g ai/ha): 35 | Plant response rating, Lambsquarters ([15]; 125 g ai/ha): 50 | Plant response rating, Lambsquarters ([15]; 250 g ai/ha): 70 | Plant response rating (scale of 0 to 100), Corn (corn (Zea mays); [17]): 0 | Plant response rating, Corn (corn (Zea mays); 62 g ai/ha): 0 | Plant response rating, Corn (corn (Zea mays); 125 g ai/ha): 0 | Plant response rating, Corn (corn (Zea mays); 250 g ai/ha): 0 | Plant response rating (scale of 0 to 100), Waterhemp [16, 17]: 55 | Plant response rating, Waterhemp ([16]; 62 g ai/ha): 75 | Plant response rating, Waterhemp ([16]; 125 g ai/ha): 70 | Plant response rating, Waterhemp ([16]; 250 g ai/ha): 85
